Data set [1] deals with Vero, HeLa, CV-1PD, TM-1, DP-9, CEMx174, NIKS, W12E cells. The experiment in a line: MTS assay, eight cell lines. The note with it: eight cell lines.
Another data set deals with cornea. Kind of data set: In vivo peptide toxicity, cornea. Conditions: mouse, in vivo. Set-up: species or system BALB/C mice. As to the method: (i) Cornea: Four-6-week-old female BALB/C mice (Harlan Sprague Dawley, Indianapolis, Ind.) were anesthetized by halothane inhalation (3-5%). A 2.0 μL drop of serum-free 5×DMEM solution containing 6.1 mM EB, 6.1 mM EBX, 7.5 mM TAT-C, 7.5 mM n50,51 TAT-C, 7.5 mM TAT-Cd, or 11.2 mM bHOMd or serum-free DMEM only (control) was then placed on the cornea and the mice were returned to their cages. Each group consisted of 5 mice, except for 11.2 mM bHOMd, and 7.5 mM TAT-Cd, which consisted of 4 mice. Only the right eye in each mouse received the peptide. Treatments were given 4 times per day at least 2 hrs apart for 7 days. On days 1, 5, and 7, the mice were examined microscopically for evidence of blepharitis, punctate keratopathy, dendrite ulceration and geographic ulceration. Damage to the corneal epithelium was assessed by staining with 1.0% […] and examination under a microscope with blue light. Blepharitis was scored: 1+ for noticeable puffy eyelids, 2+ for puffy eyelids with moderate crusting, 3+ for eye 50% swollen shut with severe crusting, and 4+ for eye totally swollen and crusted shut (Brandt et al., 1992). Punctate keratopathy, dendrite ulceration, and geographic ulceration were scored: 1+ for <25% of the cornea involved, 2+ for 25-50% involved, 3+ for 50-75% involved, and 4+ for >75% involved. The mean disease score for each group of mice on each day was calculated by the sum of disease scores in each group on each day divided by the numbers of mice in that group. On day 7, following the last treatment, the mice were sacrificed and the eyes were removed, fixed in 10% formalin, embedded in paraffin, sectioned (5μ each), and stained with hematoxylin and eosin as we have described previously (Brandt et al., 1996). Sections were then examined for evidence of damage to the cornea, sclera, lens, and retina.

Data set [2] concerns HSV-1 KOS mutant hrR3. The experiment in a line: LacZ+ virus (hrR3) entry assay with pre-adsorbed virus (entry block). In kind it is cell-based. As for the experimental part: LacZ^+ virus (hrR3) entry assay: Confluent Vero cell cultures in 96-well microtiter plates were switched to Hepes-buffered serum-free DMEM, cooled on ice to 4° C. for 30 min, and infected with hrR3 for 1 hour at 4° C. in 40 μL of medium. Unattached virus was removed by rinsing with ice-cold medium. Treatments with antiviral peptide SEQ ID NO:1, referred to as EB, or a control peptide which comprised the RRKK tetra-peptide (SEQ ID NO:16) attached to a scrambled version of the membrane transiting peptide RRKKLAALPLVLAAPLAVLA (SEQ ID NO:17) (referred to as EBX), or mock-treatments with peptide-free medium were carried out in serum-free DMEM as indicated. Virus entry was initiated by transferring cultures to 37° C. To inactivate any remaining extracellular virus, cultures were rinsed with PBS and exposed to low pH citrate buffer (40 mM citric acid, 10 mM KCl, 135 mM NaCl, pH 3.0, according to Highlander et al., J. Virol. 61:3356 (1987), for 1 min at 23° C. The citrate was rinsed off with PBS and cultures were maintained in serum-supplemented DMEM until they were fixed with 0.5% gluteraldehyde in 5×PBS for 30 min at 23° C., stained for β-galactosidase activity for 1 hour or overnight at 23° C. with X-gal (Fisher Biotech; BP1615-1) in 1×PBS containing […], 1.3 mM K4Fe(CN)6, and 1.3 mM K3Fe(CN)6, and scored for the presence of blue […] cells.
In these studies, the hrR3 virus was pre-adsorbed to cells for 1 hour at 4° C. before ice cold 25 μM EB or EBX were added in serum-free DMEM. After an additional 1 hour at 4° C., cultures were shifted to 37° C. to initiate virus entry. At 15 min intervals following the temperature shift, any virus remaining outside the cells was inactivated by washing the cultures with low pH citrate buffer. Cultures were then rinsed and returned to peptide-free serum-supplemented DMEM until they were fixed and stained for β-galactosidase 8 hours after the temperature shift.
(§1) Two assays were used to assess the ability of the TAT peptides to inhibit infection of Vero cells with the hrR3 virus. In both assays, the virus was preadsorbed to cells at 4° C. and entry was initiated in the presence of peptide by shifting the cultures to a permissive temperature (30-37° C.). One hour later, the peptide was rinsed off. The entry blocking activity was measured in half of the cultures, in which any extracellular virus remaining after the peptide treatment was inactivated with low pH citrate buffer. The rest of the cultures were exposed to PBS instead of citrate buffer and used to measure virus inactivation. Virus inactivation depended on persistent effects of the peptide lasting for a period of eight hours. At the end of that period, all cultures were fixed and infected cells were detected by staining with X-gal.
(§2) Virus (m.o.i.=0.025) was preadsorbed to Vero cells for 1 h at 4° C. before cultures were exposed to TAT-C (FIG. 15A), bTAT-9X (FIG. 15B), or n50,51TAT-C (FIGS. 15C, 15D) for 1 h at 33 (FIGS. 15A, 15B), 31 (FIG. 15C), or 37° C. (FIG. 15D). […] Inhibition of entry was measured in the citrate-treated cultures, in which any remaining external virus was inactivated immediately following exposure to peptide (●). Persistent virus inactivation lasting, at least in part, for the 8 h period following exposure to peptide, was measured in the PBS-treated cultures (◯). The IC50s measured in these experiments are included in Table 5.

The next data set deals with HSV-1 KOS. The experiment in a line: Plaque reduction assay. The class given is cell-based. Conditions: presence of serum. As for the experimental part:
Cell culture and virus: The procedures for growing Vero cells and preparing high titer stocks of HSV-1 KOS as described in Grau et al., Invest. Ophthal. and Vis. Sci. 30: 2474 (1989) were utilized. Vero cells were maintained in carbonate-buffered DMEM supplemented with 5% calf serum and 5% fetal bovine serum (regular medium). For some studies, cells were switched to serum-free DMEM buffered with 25 mM HEPES (pH 7.4) and allowed to adapt to that medium for 30 min prior to experimental treatments. Vero cells were seeded into wells (0.28 cm^2) of microtiter plates either at 3.5×10^4 cells/well for use 1 day later (8×10^4 cells/well) or at 1×10^4 cells/well for use 3 days later (2×10^5 cells/well).
Plaque reduction assay: Confluent Vero cell cultures in microtiter plates were infected for 1 hour at 37° C. in 40 μL of medium. Except where indicated, peptide treatments in 40 μL of medium lasted from 1 hour before through 1 hour after infection. At the end of the adsorption period, the cultures were re-fed with 100 μL of regular medium. Plaque formation was scored 2 days later and the number of plaques scored per well was normalized to the number counted in the absence of peptide. Using an ocular micrometer, plaque size (π/2×L×S) was determined by measuring the largest plaque diameter (L) and the diameter at a 90° angle to that (S). The size of each of the first 40 scored plaques was measured except when a plaque included less than 10 rounded cells or touched the side of the well.
On the technique in general: Plaques are areas of infected cells; plaque reduction assays count them against a control.

Data set [3] concerns HSV-1 KOS mutant hrR3. The note with it: read-out: inhibition of hrR3 infection IC50; serum-free conditions.
The nature of another data set: in vitro. Conditions: African green monkey.
The test system of the next data set is hrR3. The experiment in a line: Virucidal assay. The class given is cell-based, HSV-1. As to the method: […] The treated virus was diluted 200-fold with serum-supplemented DMEM and assayed for infectivity approximately 1 hour later in microtiter wells seeded with Vero cells (3.5×10^4 cells/well) 1 d earlier. Forty or 100 microliter volumes of diluted virus were adsorbed for 1 or 2 h at 37° C. and lacZ^+ cells were scored 8 hours later. In some experiments, aliquots of diluted virus were first dialyzed (Spectra/Por; MWCO 12-14,000) overnight at 4° C. against a 60-fold excess volume of Hepes-buffered serum-supplemented DMEM or forced by syringe through 0.22 μm membranes (Millex-GV; Millipore) before the remaining infectious virus was assayed.

Data set [4] has as its system HSV-1 KOS mutant hrR3. The experiment in a line: Inactivation of pre-adsorbed virus (virus inactivation). In kind it is cell-based. As to the method: as §1, §2
A further data set relates to hrR3 virions. The experiment in a line: Inactivation of virions in solution. In kind it is cell-based, HSV-1. Conditions: 37° C.; read-out: Inactivation of Virions 37° C. IC50. As for the experimental part:
Inactivation of virions: To assess the ability of peptides to inactivate virions, 3-4×10^6 pfu/mL of virus was mixed on ice with peptide in serum-free DMEM and incubated for 1 h at 4 or 37° C. Aliquots (10 μL) were diluted 1000-fold into peptide-free serum-supplemented DMEM at 23° C. and 50 μL aliquots were assayed in triplicate for infectivity in Vero cell cultures (dilution assay). Alternatively, 10 μL aliquots were diluted into 1 mL of ice-cold peptide-free serum-supplemented DMEM and the virus was pelleted as described above (centrifugation assay). Viral pellets were then resuspended in 250 μL serum-supplemented DMEM and 50 μL aliquots were assayed in triplicate for infectivity in Vero cell cultures.
Some of the virus diluted without the addition of NaCl was pelleted immediately (Control), while the rest of the diluted virus was stored at 4° C. and pelleted 19 h later. The virus was pelleted and assayed for infectivity as described in Example 1.

Like-named read-outs stand apart in the source and are kept apart here. Peptide text beside a SMILES is read from it. * marks the point of attachment. Biotin = O=C1N[C@H]2[C@H](CS[C@H]2CCCCC(=O)*)N1; Ahx = NCCCCCC(=O)O

By IC50 is commonly meant the concentration at which inhibition is half-maximal. Turning to `CC(C)C[C@H](NC(=O)[C@H](CCCCN)NC(=O)[C@H](CCCCN)NC(=O)[C@H](CCCNC(=N)N)NC(=O)[C@@H](N)CCCNC(=N)N)C(=O)N[C@@H](C)C(=O)N[C@@H](C)C(=O)N[C@@H](CC(C)C)C(=O)N1CCC[C@H]1C(=O)N[C@@H](CC(C)C)C(=O)N[C@H](C(=O)N[C@@H](CC(C)C)C(=O)N[C@@H](C)C(=O)N[C@@H](C)C(=O)N1CCC[C@H]1C(=O)N[C@@H](CC(C)C)C(=O)N[C@@H](C)C(=O)N[C@H](C(=O)N[C@@H](CC(C)C)C(=O)N[C@@H](C)C(=O)O)C(C)C)C(C)C` [EBX, RRKKLAALPLVLAAPLAVLA, reference compound] (H-RRKKLAALPLVLAAPLAVLA-OH), the cytotoxic effects entry with Vero cells is given as “No cytotoxic effects”. Besides, in data set [1], the “cytotoxicity to cells (MTS), overall” value is listed as “generally not cytotoxic”. Besides, in the data set with cornea, the corneal pathology result is reported as “no evidence of corneal pathology”. Besides, the 50% inhibitory concentration (IC50) in the data set with HSV-1 KOS mutant hrR3 [2] (FIG. 7B, read-out: inhibition of entry of pre-adsorbed virus IC50) is roughly 100 µM.
For `N=C(N)NCCC[C@H](NC(=O)[C@@H](N)CCCNC(=N)N)C(=O)N[C@@H](CCCCN)C(=O)N[C@@H](CCCCN)C(=O)O` [R-R-K-K tetramer, R-R-K-K, reference compound] (H-RRKK-OH; N-terminus and C-terminus assumed), the “concentration with no antiviral activity” value with HSV-1 KOS was greater than 200 µM. In addition, the IC50 in the data set on HSV-1 KOS mutant hrR3 [3] was 1300 µM.
As to `CC(C)C[C@H](NC(=O)[C@H](C)NC(=O)[C@H](CCCCN)NC(=O)[C@H](CC(C)C)NC(=O)[C@H](C)NC(=O)[C@H](CC(C)C)NC(=O)[C@H](CCCCN)NC(=O)[C@H](CC(C)C)NC(=O)[C@H](C)NC(=O)[C@H](CC(C)C)NC(=O)[C@H](CCCCN)NC(=O)CCCCCNC(=O)CCCC[C@@H]1SC[C@@H]2NC(=O)N[C@@H]21)C(=O)N[C@@H](CCCCN)C(=O)N[C@@H](C)C(=O)N[C@@H](C)C(=O)N[C@@H](CC(C)C)C(=O)N[C@@H](CCCCN)C(=O)N[C@@H](CC(C)C)C(=O)N[C@@H](C)C(N)=O` [bKLA, b - KLALKLALKALKAALKLA-amide], in the data set with MDCK cells, the “cytotoxic effects (trypan blue staining)” value is reported as “No cytotoxic effects”. Further, the IC50 in “in vitro” is 15 µM.
As for `CC(C)C[C@H](NC(=O)CNC(=O)[C@H](CC(N)=O)NC(=O)[C@H](C)NC(=O)[C@H](Cc1ccc(O)cc1)NC(=O)[C@@H](NC(=O)[C@H](CC(=O)O)NC(=O)CNC(=O)[C@@H]1CCCN1C(=O)[C@H](CCCNC(=N)N)NC(=O)[C@H](CCCNC(=N)N)NC(=O)[C@H](CCCNC(=N)N)NC(=O)[C@H](CCC(N)=O)NC(=O)[C@H](CCCNC(=N)N)NC(=O)[C@H](CCCNC(=N)N)NC(=O)[C@H](CCCCN)NC(=O)[C@H](CCCCN)NC(=O)[C@H](CCCNC(=N)N)NC(=O)CNC(=O)[C@H](Cc1ccc(O)cc1)NC(=O)CCCCCNC(=O)CCCC[C@@H]1SC[C@@H]2NC(=O)N[C@@H]21)C(C)C)C(=O)N[C@H](C(=O)N[C@@H](C)C(=O)O)C(C)C` [bTAT-9X, b - YGRKKRRQRRR-9x] ({Biotin-Ahx}-YGRKKRRQRRRPGDVYANGLVA-OH), the “Virucidal Activity 4° C. IC50” value in the data set on hrR3 (4° C.) is “None”. Besides, the “Virucidal Activity 37° C. IC50” value in the data set with hrR3 (37° C.) is on record as “None”. Besides, the half-maximal inhibitory concentration (IC50) with HSV-1 KOS mutant hrR3 [4] (33° C., read-out: Inactivation of Pre-Adsorbed Virus 33° C. IC50) was 200 µM; in the data set on HSV-1 KOS mutant hrR3 [4] (33° C., read-out: Virus Inactivation IC50 (pre-adsorbed virus)) it was 200 µM; in the data set with HSV-1 KOS mutant hrR3 [4] (33° C., read-out: virus inactivation IC50), 200 µM; in the data set on HSV-1 KOS mutant hrR3 [4] (37° C., read-out: Inactivation of Pre-Adsorbed Virus 37° C. IC50), 63 µM; with hrR3 virions, greater than 1200 µM; in the data set with HSV-1 KOS mutant hrR3 [2] (33° C., read-out: Entry Block 33° C. IC50), 2 µM. In addition, the IC50 stood at 2 µM in the data set with HSV-1 KOS mutant hrR3 [2] (33° C., read-out: Entry Block IC50); 2 µM in the data set with HSV-1 KOS mutant hrR3 [2] (33° C., read-out: inhibition of entry IC50); 8.7 µM with HSV-1 KOS mutant hrR3 [2] (37° C., read-out: Entry Block 37° C. IC50); 67 µM in the data set on HSV-1 KOS mutant hrR3 [2] (read-out: Entry Blocking Activity IC50). In the data set on HSV-1 KOS mutant hrR3 [2] (33° C.), the “extent of inhibition of entry” value is reported as roughly 90%.

The values above are taken from patent US7432045B2 (priority 2003, dated 2008).
